# Measurements taken from patent US6214859A, “Ethylamine derivatives” (Fujimoto Brothers Co., Ltd., priority 1997, dated 2001).
# Where “and” joins values, the source holds several entries; their conditions need not be identical. Identical values can stand only once.
# Legend:
# [1] = system: serotonin release, raphe; assay: Release of biogenic amines from brain tissue: serotonin, raphe; type: in vivo, Wistar rats
# [2] = system: dopamine release, substantia nigra; assay: Release of biogenic amines from brain tissue: dopamine, substantia nigra; type: in vivo, Wistar rats
# [3] = system: noradrenaline release, locus coeruleus; assay: Release of biogenic amines from brain tissue: noradrenaline, locus coeruleus; type: in vivo, Wistar rats
# [4] = system: rats reduced learning ability by tetrabenazine; assay: Conditioned avoidance task in the shuttle box (tetrabenazine-treated rats); type: in vivo, rat; conditions: tetrabenazine 1 mg/kg s.c., significance and direction
# Method in brief: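 Male and female rats (200–220 g) were trained in a shuttle box (light/buzzer conditioned stimulus, 100 trials/day for 5 days). Tetrabenazine 1 mg/kg s.c. was given 1 h before testing, with compound at 1, 2, 2.5 or 5 mg/kg s.c. given together with tetrabenazine. CARs, EFs and IRs were counted automatically and analysed by multi-way ANOVA.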
# [5] = system: dopamine release, striatum; assay: Release of biogenic amines from brain tissue: dopamine, striatum; type: in vivo, Wistar rats
smiles,measurement,setting,value
"CCCNC(CCC)Cc1c[nH]c2ccccc12.Cl (stereo not shown) [Compound No. 20, 1-(Indol-3-yl)-2-propylaminopentane Hydrochloride]","Release of serotonin, raphe",[1]; 0.005 mg/kg s.c.,"0.492 ± 0.02 nmol/g tissue, for 20 min"
same,"Release of serotonin, raphe","[1]; 0.01 mg/kg s.c., Hydrochloride","0.961 ± 0.02 nmol/g tissue, for 20 min and 0.938 ± 0.01 nmol/g tissue, for 20 min"
same,"Release of serotonin, raphe",[1]; 0.05 mg/kg s.c.,"1.203 ± 0.08 nmol/g tissue, for 20 min"
same,"Release of serotonin, raphe",[1]; 0.25 mg/kg s.c.,"0.481 ± 0.05 nmol/g tissue, for 20 min"
same,"Release of serotonin, raphe",[1]; 1.00 mg/kg s.c.,"0.355 ± 0.05 nmol/g tissue, for 20 min"
same,"Release of serotonin, raphe",[1]; 5.00 mg/kg s.c.,"0.565 ± 0.01 nmol/g tissue, for 20 min"
same,"Release of dopamine, substantia nigra",[2]; 0.005 mg/kg s.c.,"8.7 ± 0.13 nmol/g tissue, for 20 min"
same,"Release of dopamine, substantia nigra","[2]; 0.01 mg/kg s.c., Hydrochloride","10.3 ± 0.23 nmol/g tissue, for 20 min and 10.0 ± 0.14 nmol/g tissue, for 20 min"
same,"Release of dopamine, substantia nigra",[2]; 0.05 mg/kg s.c.,"7.7 ± 0.15 nmol/g tissue, for 20 min"
same,"Release of dopamine, substantia nigra",[2]; 0.25 mg/kg s.c.,"5.2 ± 0.26 nmol/g tissue, for 20 min"
same,"Release of dopamine, substantia nigra",[2]; 1.00 mg/kg s.c.,"6.7 ± 0.19 nmol/g tissue, for 20 min"
same,"Release of dopamine, substantia nigra",[2]; 5.00 mg/kg s.c.,"5.7 ± 0.18 nmol/g tissue, for 20 min"
same,"Release of noradrenaline, locus coeruleus",[3]; 0.005 mg/kg s.c.,"5.3 ± 0.30 nmol/g tissue, for 20 min"
same,"Release of noradrenaline, locus coeruleus","[3]; 0.01 mg/kg s.c., Hydrochloride","4.3 ± 0.10 nmol/g tissue, for 20 min and 2.2 ± 0.15 nmol/g tissue, for 20 min"
same,"Release of noradrenaline, locus coeruleus",[3]; 0.05 mg/kg s.c.,"3.2 ± 0.15 nmol/g tissue, for 20 min"
same,"Release of noradrenaline, locus coeruleus",[3]; 0.25 mg/kg s.c.,"4.3 ± 0.15 nmol/g tissue, for 20 min"
same,"Release of noradrenaline, locus coeruleus",[3]; 1.00 mg/kg s.c.,"4.4 ± 0.25 nmol/g tissue, for 20 min"
same,"Release of noradrenaline, locus coeruleus",[3]; 5.00 mg/kg s.c.,"3.5 ± 0.20 nmol/g tissue, for 20 min"
same,Condition Avoidance Reflex (CARs),"[4]; 1 mg/kg s.c., Hydrochloride",* .Arrow-up bold.
same,Condition Avoidance Reflex (CARs),[4]; 2.5 mg/kg s.c.,**** .Arrow-up bold.
same,Escape Failures (EFs),[4]; 2.5 mg/kg s.c.,**** .dwnarw.
same,Condition Avoidance Reflex (CARs),[4]; 5 mg/kg s.c.,**** .Arrow-up bold.
same,Escape Failures (EFs),[4]; 5 mg/kg s.c.,* .dwnarw.
same,Intersignal Reactions (IRs),[4]; 5 mg/kg s.c.,* .dwnarw.
same,"Release of dopamine, striatum",[5]; 0.005 mg/kg s.c.,"5.8 ± 0.11 nmol/g tissue, for 20 min"
same,"Release of dopamine, striatum","[5]; 0.01 mg/kg s.c., Hydrochloride","6.5 ± 0.12 nmol/g tissue, for 20 min and 5.8 ± 0.18 nmol/g tissue, for 20 min"
same,"Release of dopamine, striatum",[5]; 0.05 mg/kg s.c.,"5.6 ± 0.13 nmol/g tissue, for 20 min"
same,"Release of dopamine, striatum",[5]; 0.25 mg/kg s.c.,"3.2 ± 0.05 nmol/g tissue, for 20 min"
same,"Release of dopamine, striatum",[5]; 1.00 mg/kg s.c.,"4.2 ± 0.15 nmol/g tissue, for 20 min"
same,"Release of dopamine, striatum",[5]; 5.00 mg/kg s.c.,"4.7 ± 0.13 nmol/g tissue, for 20 min"
"CCCNC(CCC)Cc1ccc2c(c1)OCO2.Cl (stereo not shown) [Compound No. 27, 1-(1,3-Benzodioxol-5-yl)-2-propylaminopentane Hydrochloride]","Release of serotonin, raphe",[1]; 0.10 mg/kg s.c.,"0.399 ± 0.00 nmol/g tissue, for 20 min"
same,"Release of serotonin, raphe",[1]; 0.25 mg/kg s.c.,"0.414 ± 0.01 nmol/g tissue, for 20 min"
same,"Release of dopamine, substantia nigra",[2]; 0.10 mg/kg s.c.,"7.8 ± 0.44 nmol/g tissue, for 20 min"
same,"Release of dopamine, substantia nigra",[2]; 0.25 mg/kg s.c.,"9.5 ± 0.32 nmol/g tissue, for 20 min"
same,"Release of noradrenaline, locus coeruleus",[3]; 0.10 mg/kg s.c.,"3.8 ± 0.15 nmol/g tissue, for 20 min"
same,"Release of noradrenaline, locus coeruleus",[3]; 0.25 mg/kg s.c.,"3.5 ± 0.20 nmol/g tissue, for 20 min"
same,Condition Avoidance Reflex (CARs),[4]; 1 mg/kg s.c.,*** .Arrow-up bold.
same,Escape Failures (EFs),[4]; 1 mg/kg s.c.,*** .dwnarw.
same,"Release of dopamine, striatum",[5]; 0.10 mg/kg s.c.,"3.4 ± 0.10 nmol/g tissue, for 20 min"
same,"Release of dopamine, striatum",[5]; 0.25 mg/kg s.c.,"4.1 ± 0.24 nmol/g tissue, for 20 min"
